From US20210284668A1, “GOLD (I)-PHOSPHINE 1,2,3-TRIAZOLE DERIVATIVES WITH ANTIBIOTIC PROPERTIES” (Centre National de la Recherche Scientifique, priority 2018, published 2021)
Several values for one entry are separate records, joined by “and”; a condition that tells them apart may be missing. Equal entries are not always repeated.

How the values were obtained:
[1] = test system: S. aureus ATCC29213; experiment: MIC by microdilution, S. aureus ATCC29213; format: cell-based, Staphylococcus aureus; details: S. aureus ATCC29213 (MecA negative, wild-type), Mueller-Hinton broth, in duplicate
Experimental: The antibacterial profile of each derivative was evaluated by the standard microdilution method for susceptibility testing on 16 different strains, following the guidelines of CLSI. The selected panel included: • S. aureus ATCC25923 (MecA negative, wild-type) • S. aureus ATCC29213 (MecA negative, wild-type) • S. aureus ATCC700699 (MecA positive, glycopeptide resistant) • S. aureus ST20131365 (MecA positive, glycopeptide resistant) • S. epidermidis ATCC14990 (MecA negative, wild-type) • S. epidermidis ATCC35984 (MecA positive) • S. epidermidis ST20140436 (MecA positive, glycopeptide resistant) • S. epidermidis ST20150446 (MecA positive, glycopeptide resistant) • E. faecalis JH2-2 (wild-type) • E. faecalis UCN41 (VanA positive, glycopeptide resistant) • E. faecalis V583 (VanB positive, glycopeptide resistant) • E. faecium ATCC19434T (wild-type) • E. faecium BM4147 (VanA positive, glycopeptide resistant) • E. faecium AUS0004 (VanB positive, glycopeptide resistant) • E. coli ATCC25922 (wild-type) • Clostridium difficile ATCC9689 (wild-type)
Both series issued from the SAR study were evaluated for their antibacterial activity on a panel of characterized strains obtained from the French National Reference Centers for Staphylococci (Lyon, Pr. Fréderique Laurent) and for Enterococci (Caen, Pr. Vincent Cattoir), respectively. As shown in the following tables, both series contain very active compounds on multi-resistant Gram-positive bacteria (Minimal Inhibitory Concentrations lower than comparator antibiotic ampicillin). Furthermore, a very important antibacterial effect has been shown too on a strain of Clostridium difficile, a Gram-positive, spore-forming, bacillus responsible for post-antibiotic diarrhoae.
The antibacterial activity of test compounds was evaluated on a selected panel of Gram-positive (4 Staphylococcus aureus, 4 Staphylococcus epidermidis, 3 Enterococcus faecalis, 3 Enterococcus faecium, 1 Clostridium difficile) and Gram-negative strains (1 Escherichia coli, 1 Klebsiella pneumoniae, 1 Pseudomonas aeruginosa, 1 Acinetacter baumannii) with known features of antibiotic resistance (from wild-type susceptibility to multi-drug resistance). The Minimal Inhibitory Concentration (MIC) of test compounds was determined in duplicate by the microdilution method in 96-well microplates with a final volume of 100 μL per well and Mueller-Hinton broth as the growth medium, as recommended by the CLSI (Clinical and Laboratory Standards Institute, document Mo7-A10, USA).

[2] = test system: E. faecium ATCC19434T; experiment: MIC by microdilution, E. faecium ATCC19434T; format: cell-based, Enterococcus faecium; set-up: unit not given here; details: E. faecium ATCC19434T (wild-type), in duplicate
Method in brief: (§1)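 Broth microdilution per CLSI document M07-A10, Mueller-Hinton medium, each MIC run in duplicate. Strains include E. coli ATCC25922 (wild-type), S. epidermidis ATCC35984 (MecA positive) and S. aureus ATCC700699 (MecA positive, glycopeptide resistant), within a mixed panel of susceptible and resistant Gram-positive/Gram-negative bacteria.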

[3] = test system: S. aureus ST20131365; experiment: MIC by microdilution, S. aureus ST20131365; format: cell-based, Staphylococcus aureus; details: S. aureus ST20131365 (MecA positive, glycopeptide resistant), in duplicate
Method in brief: as §1

[4] = test system: S. epidermidis ST20140436; experiment: MIC by microdilution, S. epidermidis ST20140436; format: cell-based, Staphylococcus epidermidis; details: S. epidermidis ST20140436 (MecA positive, glycopeptide resistant), in duplicate
Method in brief: as §1

[5] = test system: S. epidermidis ST20150446; experiment: MIC by microdilution, S. epidermidis ST20150446; format: cell-based, Staphylococcus epidermidis; details: S. epidermidis ST20150446 (MecA positive, glycopeptide resistant), in duplicate
Method in brief: as §1

[6] = test system: E. faecium AUS0004; experiment: MIC by microdilution, E. faecium AUS0004; format: cell-based, Enterococcus faecium; details: E. faecium AUS0004 (VanB positive, glycopeptide resistant), in duplicate
Method in brief: as §1

[7] = test system: E. coli ATCC25922; experiment: MIC by microdilution, E. coli ATCC25922; format: cell-based, Escherichia coli; details: E. coli ATCC25922 (wild-type), in duplicate
Method in brief: as §1

[8] = test system: S. epidermidis ATCC35984; experiment: MIC by microdilution, S. epidermidis ATCC35984; format: cell-based, Staphylococcus epidermidis; details: S. epidermidis ATCC35984 (MecA positive), in duplicate
Method in brief: as §1

[9] = test system: E. faecium BM4147; experiment: MIC by microdilution, E. faecium BM4147; format: cell-based, Enterococcus faecium; set-up: unit not given here; details: E. faecium BM4147 (VanA positive, glycopeptide resistant), in duplicate
Method in brief: as §1

[10] = test system: E. faecalis V583; experiment: MIC by microdilution, E. faecalis V583; format: cell-based, Enterococcus faecalis; details: E. faecalis V583 (VanB positive, glycopeptide resistant), in duplicate
Method in brief: as §1

[11] = test system: Clostridium difficile ATCC700057; experiment: MIC by microdilution, Clostridium difficile; format: cell-based; details: strain ATCC70057 [sic] (Tables 1-2) / ATCC700057 (Tables 3-10), in duplicate
[12] = test system: S. aureus ATCC700699; experiment: MIC by microdilution, S. aureus ATCC700699; format: cell-based, Staphylococcus aureus; set-up: unit not given here; details: S. aureus ATCC700699 (MecA positive, glycopeptide resistant), in duplicate
Method in brief: as §1

[13] = test system: panel of Gram-positive and Gram-negative strains; experiment: Antibacterial profile on the selected panel of strains; format: cell-based; details: summary of Tables 1-12
Method in brief: as §1

[14] = test system: S. aureus ATCC25923; experiment: MIC by microdilution, S. aureus ATCC25923; format: cell-based, Staphylococcus aureus; details: S. aureus ATCC25923 (MecA negative, wild-type), Mueller-Hinton broth, in duplicate
Method in brief: as §1

[15] = test system: S. epidermidis ATCC14990; experiment: MIC by microdilution, S. epidermidis ATCC14990; format: cell-based, Staphylococcus epidermidis; details: S. epidermidis ATCC14990 (MecA negative, wild-type), in duplicate
Method in brief: as §1

[16] = test system: E. faecalis JH2-2; experiment: MIC by microdilution, E. faecalis JH2-2; format: cell-based, Enterococcus faecalis; set-up: unit not given here; details: E. faecalis JH2-2 (wild-type), in duplicate
Method in brief: as §1

[17] = test system: E. faecalis UCN41; experiment: MIC by microdilution, E. faecalis UCN41; format: cell-based, Enterococcus faecalis; set-up: unit not given here; details: E. faecalis UCN41 (VanA positive, glycopeptide resistant), in duplicate
Method in brief: as §1

Compound	Minimal Inhibitory Concentration (MIC) [1]	Minimal Inhibitory Concentration (MIC) [2]	Minimal Inhibitory Concentration (MIC) [3]	Minimal Inhibitory Concentration (MIC) [4]	Minimal Inhibitory Concentration (MIC) [5]	Minimal Inhibitory Concentration (MIC) [6]	Minimal Inhibitory Concentration (MIC) [7]	Minimal Inhibitory Concentration (MIC) [8]	Minimal Inhibitory Concentration (MIC) [9]	Minimal Inhibitory Concentration (MIC) [10]	Minimal Inhibitory Concentration (MIC) [11]	Minimal Inhibitory Concentration (MIC) [12]	antimicrobial / antibacterial activity (in words) [13]	Minimal Inhibitory Concentration (MIC) [14]	Minimal Inhibitory Concentration (MIC) [15]	Minimal Inhibitory Concentration (MIC) [16]	Minimal Inhibitory Concentration (MIC) [17]
CC1(C)S[C@@H]2[C@H](NC(=O)[C@H](N)c3ccccc3)C(=O)N2[C@H]1C(=O)O [Ampi, ampicillin, reference compound]	0.5	0.5	4	4 and 8	8 and 4	>8	2	>8	4 and 8	0.5	0.5 and 0.5-1 and 0.25	–	–	–	–	–	–
CC[P+](CC)(CC)[Au-][c]1nn[nH]c1COC(=O)N[C@@H](CCCNC(=N)N[N+](=O)[O-])C(=O)O [TMB35]	0.25	0.5	0.25	0.125	0.125 and 0.25	1	>8	–	1	1	0.125	0.25	have antimicrobial activity	0.125	≤0.06	1	1
CC[P+](CC)(CC)[Au-][c]1nn[nH]c1CCC(=O)NC(C(=O)NC1C(=O)N2C1SC(C)(C)C2C(=O)O)c1ccccc1 (centres unmarked) [TMB4]	0.125	0.5	0.125	≤0.06	0.125	0.5	>8	≤0.06	1	0.5	≤0.06-0.125	0.125	have antimicrobial activity	0.125	≤0.06	–	0.5
CC[P+](CC)(CC)[Au-][c]1nn[nH]c1CCC(=O)O [TMB19]	0.125	0.125 and 0.25	0.125	≤0.06	≤0.06	0.125	>8	≤0.06	0.25	0.125 and 0.25	≤0.06	0.125 and 0.25	have antimicrobial activity	–	≤0.06	0.125 and 0.25	0.125 and 0.25
